Laboratory results: US20250177481A1, “SCO-spondin-derived polypeptides for enhancing synaptic transmission” (AXOLTIS PHARMA, priority 2021, published 2025)
Values joined by “and” are separate entries in the source; they are usually repeats but may differ in a detail not shown here. Identical values can stand only once. Positions of bridges follow the written chain, without caps; N, C: chain ends. No end group written: not given here.

Test system: subchronic PCP-induced cognitive deficits in mice
Assay: T-maze continuous alternation task in subchronic PCP mice
Type: in vivo, Swiss CD-1 mice
Details: PCP alone 30.71, control 66.43, 5 mg/kg
Text: Phenycyclidine (PCP) is an antagonist of NMDA receptor, its administration in healthy humans produces schizophrenia-like symptoms, therefore PCP is often used to mimic schizophrenia in rodents. […] In addition, brain samples were collected shorlty after the T-Maze test to measure the levels of cerebral biomarkers involved in synaptic plasticity.
Sixty (60) male Swiss CD-1 mice were purchased from Janvier Labs (Le Genest-Saint-Isle, France) one week before the start of the study for acclimation. Mice were group-housed (6-8 mice per Eurostandard type Ill cage) and maintained in a room with controlled temperature (21-22° C.) under a reversed 12 h/12 h light-dark cycle (lights on: 5:[…]; lights off: 05:30 am) with food and water available ad libitum. The weight of mice ranged from 25.9 and 36.4 g. […]
Nicotine used as a positive control was administered at a dose of 0.4 mg/kg intraperitoneally 30 minutes prior to the T-maze trial
After administration of compounds at different timepoints all animals were tested for continuous alternation task in the T-Maze. The T-maze apparatus was made of gray Plexiglas with a main stem (55-cm long×10-cm wide×20-cm high) and two arms (30-cm long×10-cm wide×20-cm high) positioned at a 90-degree angle relative to the main stem. A start box (15-cm long×10-cm wide) was separated from the main stem by a guillotine door. Horizontal doors were also provided to close specific arms during the force choice alternation task. The experimental protocol consisted in one single session that started with 1 “forced-choice” trial, followed by 14 “free-choice” trials (Gerlai, 1998). In the first “forced-choice” trial, the mouse was confined 5 s in the start arm and then released while either the left or right goal arm was blocked by closing the sliding door. Then, it walked through the maze, eventually entered the open goal arm, and then returned to the start position. Immediately after the mouse came back to the start position, the left or right goal door was opened (i.e. the two goal doors were opened), and the mouse could choose freely between the left and right goal arms (first “free choice trial”). The mouse was considered as entered in the arm when it placed its four paws in the arm. The opposite goal door was then closed until the animal returned to the start arm. Then, a second “free choice trial” began by the opening of the closed goal door (i.e. the two goal doors were opened), leaving the choice to the mouse to enter either into the right or the left arm. The session was considered finished as soon as 14 free-choice trials had been performed in less than 10 min, and the mouse was removed from the maze. The time needed to reach these 14 “free-choices” was recorded.
The percent of spontaneous alternations was calculated as number of spontaneous alternations divided by the number of free-choice trials, an index of spatial short-term working memory. The apparatus was cleaned between each animal using alcohol (70%). Urine and feces were removed from the maze. During the trials, animal handling and the visibility of the operator were minimized as much as possible. Animals were tested in a random and blind manner.

With “W-S-G-W-S-S-C-S-R-S-C-G [NX218] (WSGWSSCSRSCG; disulfide 7-11 (inferred))” the “Spontaneous alternations in T-maze” value (PCP + 5 mg/kg i.p. on D12, D13 and D14 (48 h, 24 h and 2 h before trial), n=10) was 62% and 62.13%, the “Spontaneous alternations in T-maze” value (PCP + 5 mg/kg i.p. on D13 (24 h before trial), n=9) was 35% and 34.92% and the “Spontaneous alternations in T-maze” value (PCP + 5 mg/kg i.p. on D14 (2 h before trial), n=10) was 53% and 52.87%.
